Measurements: article PMC10540216, “Activity Guided Azide-methyllysine Photo-trapping for Substrate Profiling of Lysine Demethylases” (Journal of the American Chemical Society, 2023)
Entries after “also recorded” stand apart in the source; their conditions may differ. Where a SMILES comes first, the peptide text is derived from it. Where no end group is shown, it is not given here. [ ]: non-standard residue; d: D form. Lys(Me3) = C[N+](C)(C)CCCC[C@H](N)C(=O)O; Lys(Me2) = CN(C)CCCC[C@H](N)C(=O)O; Lys(Me) = CNCCCC[C@H](N)C(=O)O

How the values were obtained:
KDM4A-E = test: Demethylase activity of KDM4 subfamily on peptide substrates (MALDI-TOF MS), result worded for KDM4A-E together; assay type: biochemical, human; conditions: wild-type KDM4A-E, 10 µM enzyme, 10 µM peptide, 1 mM 2OG, 50 mM Tris pH 8, 37°C, three hours
CBX1 chromodomain [1] = target: T1, CBX1 chromodomain (Homo sapiens, UniProt P83916); test: Isothermal titration calorimetry of peptide binding to CBX1 chromodomain; conditions: ITC, T 288.15 K in Table S6
T1 construct: occupied by CBX1 chromodomain at a concentration of 110 µM; 6xHis (N); made in house
T1 sequence (P83916 21-79 limits assumed): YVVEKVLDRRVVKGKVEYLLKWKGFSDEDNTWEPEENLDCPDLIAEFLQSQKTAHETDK

KDM4A = test: Demethylase activity of wild type KDM4A on peptide substrates (MALDI-TOF MS); assay type: biochemical, human; conditions: 10 µM enzyme, 10 µM peptide, 1 mM 2OG, 50 mM Tris pH 8, 37°C, three hours
Procedure: fritted syringe was rocked for 2-4 hours at room temperature using a fixed angle rocker (Fisher 07202202). After cleavage, the solvent was ejected from the syringe into a 50mL Falcon tube, leaving behind the resin in the syringe. Nitrogen gas was bubbled through the solution to remove roughly 50% of the TFA prior to precipitation via -80°C diethyl ether for 5-10 minutes (Acros #326860010). Precipitate was then pelleted via centrifugation (Sorvall Legend XTR) at 3000 rpm for 5 mins. Supernatant was decanted. Crude peptide was then resuspended in 0.1% TFA prior to purification and characterization as described for peptides from the peptide facility. The integrity of the purified peptides was confirmed by MALDI-TOF MS. The complete list is in Table S1.
3. Expression and purification of wild type KDM4A-E […]
bacterial expression construct pNIC28-Bsa4 (Addgene ID: 38846) was obtained from Addgene […]
E. Coli BL21 (DE3) competent cells (Invitrogen) using pNIC28-Bsa4 kanamycin-resistant vector.
A single colony was picked up and grown overnight at 37 °C in 10 mL of Luria-Bertani (LB) broth in the presence of 50 μg/mL kanamycin and 35 μg/mL chloramphenicol. The culture was diluted 100-fold and allowed to grow at 37 °C to an optical density (OD600) of 0.8, and protein expression was induced overnight at 17 °C with 0.6 mM IPTG in an Innova 44® Incubator shaker (New Brunswick Scientific). Proteins were purified as follows: harvested cells were resuspended in 15 mL lysis buffer (50 mM Tris-HCl pH 8.0, 200 mM NaCl, 5 mM b-mercaptoethanol, 10% glycerol, 25 mM imidazole, Lysozyme, DNase, and Roche protease inhibitor cocktail). […]
After passing 20 volumes of washing buffer (50 mM Tris-HCl pH 8.0, 200 mM NaCl, 5 mM b-mercaptoethanol, 10% glycerol, and 25 mM imidazole), proteins were eluted with a buffer containing 50 mM Tris-HCl pH 8.0, 200 mM NaCl, 5 mM b-mercaptoethanol, 10% glycerol, and 400 mM imidazole. […] The protein concentration was determined […]
8.0, 200 mM NaCl, and 10% glycerol. […] The protein concentration was determined using Bradford assay kit (BioRad Laboratories) with BSA as a standard. […]

CBX1 chromodomain [2] = target: T1, CBX1 chromodomain; test: Isothermal titration calorimetry of peptide binding to CBX1 chromodomain; conditions: ITC, 25 °C, 1.1 mM peptide into 110 µM CBX1 chromodomain; for Kd: 200mM NaCl, 10% glycerol, 50mM Tris pH 8.0, single binding site model
Procedure: (§1) 7. Expression and purification of lysine methyltransferases and Chromodomains […]
17. Isothermal Titration Calorimetry
Isothermal titration calorimetry (ITC) was performed with an ITC200 instrument (MicroCal, Malvern). Experiments were conducted at 25 °C while stirring at 750 rpm. Buffers of protein […]
were matched to 200mM NaCl, 10% glycerol, and 50mM Tris pH 8.0. Each titration was performed as follows: one initial injection of 0.4 µL for 0.8 seconds, followed by 19 injections of 2.0 µL for 4 seconds, with ≥2 mins between each injection. The initial injection was discarded prior to data analysis. The microsyringe (40µL) was loaded with 1.1 mM peptide and injected into the cell (200µL), occupied by CBX1 chromodomain at a concentration of 110 µM. Data was fitted to a single binding site model using Microcal ITC200 Software with Origin Lab 7.
(§2) KDM4A mammalian expression plasmid in CMV vector was purchased from Addgene (plasmid #24180). Full-length G9a in pCDNA3 vector was kind from Prof. Minkui Luo at the Memorial Sloan-Kettering Cancer Center. HEK293T/17 cells (ATCC) were grown in a T25 containing Delbucco’s Modified Eagle Medium (DMEM) (Corning) with 10% FBS at 37 °C, 5% CO2, and 95% relative humidity. When cells reached 80% confluency, 5 µg of plasmid and 10 µg

G9a = test: Methylation of eIF4A3-K374 peptides by KMT (MALDI-TOF MS); assay type: biochemical; conditions: 20 µM KMT, 10 µM peptide, 200 µM SAM
Procedure: as §1
16. Methylation activity of wild type KMTs on eIF4A3-K374me0/1/2 peptides 20 µM lysine methyltransferase, 10 µM eIF4A3-me0/1/2 peptide and 200 µM SAM were incubated at room temperature for 1-2 hours in 50 mM Tris pH 8.0. Reaction was stopped by storing the microcentrifuge tubes on ice. After mixing, 0.8 µL of sample and 0.8 µL of α-cyano-4-hydroxycinnamic acid (CHCA) (dissolved in 50:50 0.1% TFA and acetonitrile) were combined on a MALDI plate. Samples were ionized using reflectron positive mode on Bruker Daltonics UltrafleXtreme MALDI TOF with detection carried out from 700-3500 m/z. Bruker Flex Analysis software was used to analyze the MALDI-TOF MS spectra.
17. Isothermal Titration Calorimetry […]
The microsyringe (40µL) was loaded with 1.1 mM peptide and injected into the cell (200µL), occupied by CBX1 chromodomain at a concentration of 110 µM. Data was fitted to a single binding site model using Microcal ITC200 Software with Origin Lab 7.
as §2

KDM4E-L72AzF = test: Photo-crosslinking with TAMRA peptides, in-gel fluorescence; assay type: binding; conditions: 10 µM peptide, 20 µM protein, UV irradiation
Procedure: (§3) 10. Photo-crosslinking experiment with peptides and in-gel fluorescence For peptide photo-crosslinking experiments, 10 µM TAMRA-labeled H3K9me0 or H3K9me3 […]
(§4) mM ascorbic acid, 50 mM tris pH 8.0, 50 μM Fe(NH4)2(SO4)2, 200 µM 2OG. Samples were […]
(§5) 365nm 100% irradiated) for 30 minutes at 4 °C on ice. Negative controls were kept in dark on ice for the full 30 minutes. 10 µL of sample was mixed with 5 µL 4X Laemmli dye (Biorad #1610747) and separated on a 4-12 % Criterion XT precast gel (Bio-Rad Laboratories). Gels were imaged on a ChemiDoc MP Imaging system using TAMRA fluorophore excitation wavelength (Emission filter 605/50, Light: green Epi illumination). The gel was subsequently stained with Coomassie brilliant blue R-250 staining solution to confirm the presence of proteins in all the samples. […]

KDM4A-I71AzF [3] = test: as above; assay type: binding, human
KDM4D-L75AzF = test: as above; assay type: binding, human; conditions: 10 µM peptide, 20 µM protein, UV irradiation
Procedure: as §3, §4, §5

wild-type KDM4A = test: as above; assay type: binding, human; conditions: 10 µM peptide, 20 µM protein, 365 nm UV, 30 minutes at 4 °C
Procedure: as §3, §4, §5

[4] = system: catalytically dead AzF variants of KDM4A; test: as above; assay type: binding, human; conditions: majority of the catalytically dead AzF variants, 10 µM peptide, 20 µM protein, 365 nm UV, 30 minutes
Procedure: as §3, §4, §5

KDM4C-I73AzF = test: as above; assay type: binding, human; conditions: 10 µM peptide, 20 µM protein, UV irradiation
Procedure: as §3, §4, §5

KDM4A-I71AzF [5] = test: Demethylase activity of AzF mutant on peptide substrates (MALDI-TOF MS); assay type: biochemical, human; conditions: 10 µM enzyme, 10 µM peptide, 1 mM 2OG, 50 mM Tris pH 8, 37°C, three hours

Compound | TΔS (CBX1 chromodomain [1]) [kcal/mol] | ΔG (CBX1 chromodomain [1]) [kcal/mol] | ΔH (CBX1 chromodomain [1]) [kcal/mol] | ΔS (CBX1 chromodomain [1]) [cal/mol/degree] | demethylation by KDM4A (KDM4A) | Kd (CBX1 chromodomain [2]) [µM] | methylation by G9a (in words) (G9a) | other results
CC[C@H](C)[C@H](NC(=O)[C@H](C)NC(=O)[C@@H](NC(=O)CNC(=O)[C@H](CCCC[N+](C)(C)C)NC(=O)[C@H](CCCNC(=N)N)NC(=O)CNC(=O)[C@H](Cc1ccc(O)cc1)NC(=O)[C@H](CCCNC(=N)N)NC(=O)CNC(=O)[C@H](CO)NC(=O)[C@H](CCCNC(=N)N)NC(=O)CN)C(C)C)C(=O)N[C@@H](CC(N)=O)C(=O)N[C@@H](Cc1ccccc1)C(=O)N[C@H](C(=O)N[C@@H](CCCCN)C(N)=O)C(C)C [compound 13] (H-GRSGRYGR[Lys(Me3)]GVAINFVK-NH2) | 2.472 | -6.230 | -3.758 | 8.58 | indeed demethylated by KDM4A in vitro | 23.2 ± 2 | – | demethylation by KDM4A-E (KDM4A-E): demethylated by multiple KDM4s; also recorded: robust demethylation
CC[C@H](C)[C@H](NC(=O)[C@H](C)NC(=O)[C@@H](NC(=O)CNC(=O)[C@H](CCCCN(C)C)NC(=O)[C@H](CCCNC(=N)N)NC(=O)CNC(=O)[C@H](Cc1ccc(O)cc1)NC(=O)[C@H](CCCNC(=N)N)NC(=O)CNC(=O)[C@H](CO)NC(=O)[C@H](CCCNC(=N)N)NC(=O)CN)C(C)C)C(=O)N[C@@H](CC(N)=O)C(=O)N[C@@H](Cc1ccccc1)C(=O)N[C@H](C(=O)N[C@@H](CCCCN)C(N)=O)C(C)C [compound 23] (H-GRSGRYGR[Lys(Me2)]GVAINFVK-NH2) | -1.106 | -5.470 | -6.576 | -3.84 | demethylated only to eIF4A3-K374me1 by KDM4A; also recorded: demethylated to Kme1 by KDM4A | 95.2 ± 1.4 | methylated by G9a; also recorded: trimethylated by G9a | –
(5/6)-TA M R A-GGARTKQTARKme3STGGKAPR [compound 6, tetramethylrhodamine (TAMRA)-attached H3K9me3 peptide] | – | – | – | – | – | – | – | crosslinking with KDM4E-L72AzF (KDM4E-L72AzF): successful crosslinking; crosslinking with KDM4A-I71AzF (KDM4A-I71AzF [3]; 10 µM peptide, 20 µM protein, 365 nm UV, 30 minutes at 4 °C): robust crosslinking; crosslinking without UV exposure (control) (KDM4A-I71AzF [3]; kept in dark on ice 30 minutes): no fluorescence band was detected; crosslinking with KDM4D-L75AzF (KDM4D-L75AzF): successful crosslinking; crosslinking with wild-type KDM4A (wild-type KDM4A): failed to undergo crosslinking; crosslinking with catalytically dead AzF variants [4]: ineffective to trap the substrate; crosslinking with KDM4C-I73AzF (KDM4C-I73AzF): successful crosslinking
GRSGRYGR[Lys(Me)]GVAINFVK [compound 22, eIF4A3-K374me1 peptide] | 0 | 0 | 0 | 0 | not demethylated by KDM4A; also recorded: failed to convert to Kme0 | – | methylated by G9a; also recorded: trimethylated by G9a | binding to CBX1 chromodomain (in words) (CBX1 chromodomain [2]; 50mM Tris pH 8.0): no binding; also recorded: not bind to CBX1; also recorded: no detectable interaction
KSAPSTGGVKme3KPHRYKPGTGK [compound 5, H3K36me3 peptide] | – | – | – | – | – | – | – | demethylation by I71AzF mutant (KDM4A-I71AzF [5]): modestly
